Converted amounts (≈) assume the structure as drawn. The source made the active and inactive calls. No cut-off for these calls is given here.
How the values were obtained:
Botrytis cinerea [1] = experiment: Antifungal activity against Botryotinia fuckeliana assessed as mycelial growth at 3 mg/ml after 4 days (reference value: 85 mm); format: functional
Botrytis cinerea [2] = experiment: Growth inhibition of Botryotinia fuckeliana at 0.5 mg/ml after 4 days relative to control; format: functional; conditions: 96 h, read-out: GI
Botrytis cinerea [3] = experiment: Growth inhibition of Botryotinia fuckeliana at 4 mg/ml after 4 days relative to control; format: functional; conditions: 96 h, read-out: GI
Botrytis cinerea [4] = experiment: Antifungal activity against Botryotinia fuckeliana infected in grape assessed as lesion diameter at 1 mg/ml applied by dipping 24 hr prior to infection measured after 4 days at 24 degC (reference value: 30.56 mm); format: functional
Botrytis cinerea [5] = experiment: Antifungal activity against Botryotinia fuckeliana infected grape assessed as lesion diameter at 3 mg/ml applied by dipping 24 hr prior to infection measured after 4 days at 24 degC (reference value: 30.56 mm); format: functional
Botrytis cinerea [6] = experiment: Growth inhibition of Botryotinia fuckeliana at 1 mg/ml after 4 days relative to control; format: functional; conditions: 96 h, read-out: GI
Botrytis cinerea [7] = experiment: Antifungal activity against Botryotinia fuckeliana infected grape assessed as decrease in lesion diameter at 1 to 3 mg/ml applied by dipping 24 hr prior to infection measured after 5 to 7 days at 4 degC relative to untreated-control; format: functional, organism-based
Botrytis cinerea [8] = experiment: Antifungal activity against Botryotinia fuckeliana infected grape assessed as decrease in lesion diameter at 3 mg/ml applied by dipping 24 hr prior to infection measured after 3 days at 4 degC relative to untreated-control; format: functional, organism-based
Botrytis cinerea [9] = experiment: Antifungal activity against Botryotinia fuckeliana infected grape assessed as decrease in lesion diameter at 3 mg/ml applied by dipping 24 hr prior to infection measured after 3 days at 24 degC relative to untreated-control; format: functional, organism-based
Botrytis cinerea [10] = experiment: Antifungal activity against Botryotinia fuckeliana infected grape assessed as decrease in lesion diameter at 3 mg/ml applied by dipping 24 hr prior to infection measured after 4 days at 4 degC relative to untreated-control; format: functional, organism-based
Botrytis cinerea [11] = experiment: Antifungal activity against Botryotinia fuckeliana infected grape assessed as decrease in lesion diameter at 1 mg/ml applied by dipping 24 hr prior to infection measured after 4 days at 4 degC relative to untreated-control; format: functional, organism-based
Botrytis cinerea [12] = experiment: Growth inhibition of Botryotinia fuckeliana at 5 mg/ml after 4 days relative to control; format: functional; conditions: 96 h, read-out: GI
Botrytis cinerea [13] = experiment: Antifungal activity against Botryotinia fuckeliana assessed as mycelial growth after 4 days; format: functional, organism-based; conditions: 96 h
Botrytis cinerea [14] = experiment: Antifungal activity against Botryotinia fuckeliana assessed as mycelial growth at 2 mg/ml after 4 days (reference value: 85 mm); format: functional

CSC(=O)c1cccc2nnsc12 [ACIBENZOLAR-S-METHYL]
Activity (Botrytis cinerea [1]): 44.72 mm
inhibition of growth at 500 µg/mL (Botrytis cinerea [2]): 16.3%
inhibition of growth at 4000 µg/mL (Botrytis cinerea [3]): 55.6%
Activity (Botrytis cinerea [4]): 17.94 mm
Activity (Botrytis cinerea [5]): 16.99 mm
inhibition of growth at 1000 µg/mL (Botrytis cinerea [6]): 23.1%
Activity (Botrytis cinerea [7]): Active
Activity (Botrytis cinerea [8]): Active
Activity (Botrytis cinerea [9]): Active
Activity (Botrytis cinerea [10]): Active
Activity (Botrytis cinerea [11]): Active
inhibition of growth at 5000 µg/mL (Botrytis cinerea [12]): 66.2%
EC50 (Botrytis cinerea [13]): 3440 µg/mL (≈ 16.4 mM)
Activity (Botrytis cinerea [14]): 54.26 mm
